In US10519152B2, “Compounds and their use in treating cancer” (AstraZeneca AB, priority 2017, dated 2019):

Target: T1, Estrogen Receptor (ERα) in MCF-7 human ductal carcinoma breast cell line (Homo sapiens, UniProt P03372)
T1 construct: endogenous in cells; host or cells: MCF-7
T1 sequence (P03372 1-595): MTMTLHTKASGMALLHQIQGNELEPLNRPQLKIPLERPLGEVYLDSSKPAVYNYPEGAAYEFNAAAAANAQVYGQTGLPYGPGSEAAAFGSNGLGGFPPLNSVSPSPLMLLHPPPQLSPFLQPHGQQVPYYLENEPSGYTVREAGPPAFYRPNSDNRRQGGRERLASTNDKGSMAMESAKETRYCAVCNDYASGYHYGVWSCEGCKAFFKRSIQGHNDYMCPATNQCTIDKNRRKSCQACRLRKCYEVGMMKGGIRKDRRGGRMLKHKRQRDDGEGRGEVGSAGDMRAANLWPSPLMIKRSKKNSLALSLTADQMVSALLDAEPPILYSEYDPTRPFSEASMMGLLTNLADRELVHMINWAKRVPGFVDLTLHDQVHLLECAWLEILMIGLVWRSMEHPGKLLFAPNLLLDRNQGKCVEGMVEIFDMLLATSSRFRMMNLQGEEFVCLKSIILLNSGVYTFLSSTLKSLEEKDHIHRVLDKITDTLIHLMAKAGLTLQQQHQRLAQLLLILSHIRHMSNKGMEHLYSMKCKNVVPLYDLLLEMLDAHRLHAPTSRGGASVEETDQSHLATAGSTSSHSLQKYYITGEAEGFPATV
Assay: MCF-7 ER degradation assay (cell based immuno-fluorescence)
Conditions: MCF-7 cells; for ER degradation ≥ 90% at 0.3 μM: ER degradation by fulvestrant at 0.3 μM is defined as 100%; for DC50: 18-22 hours incubation, 50% reduction of ERα expression, single experiment or average of two or more, read-out: MCF-7 ER degradation IC50
Outline: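 MCF-7 human ductal carcinoma breast cells were seeded at 3.75×10^4 cells per mL (40 μL per well) in 384 well plates with phenol red free DMEM containing 2 mM L-Glutamine and 5% (v/v) Charcoal/Dextran treated foetal calf serum. After overnight culture, compounds were acoustically dispensed, incubated 18-22 hours, then cells were formaldehyde-fixed and immunostained for ERα.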

`Cc1ncsc1-c1ccc(CNC(=O)[C@@H]2C[C@@H](O)CN2C(=O)[C@@H](NC(=O)C(F)(F)OCCOCCCCOc2cc(F)c([C@@H]3c4[nH]c5ccccc5c4C[C@@H](C)N3CC(C)(C)F)c(F)c2)C(C)(C)C)cc1` [Example 121, (2S,4R)-1-((S)-2-(2-(2-(4-(3,5-Difluoro-4-((1R,3R)-2-(2-fluoro-2-methylpropyl)-3-methyl-2,3,4,9-tetrahydro-1H-pyrido[3,4-b]indol-1-yl)phenoxy)butoxy)ethoxy)-2,2-difluoroacetamido)-3,3-dimethylbutanoyl)-4-hydroxy-N-(4-(4-methylthiazol-5-yl)benzyl)pyrrolidine-2-carboxamide] was tested, and the “ER degradation ≥ 90% at 0.3 μM” value was “•” and the DC50 was 2.6 nM.
With `Cc1ncsc1-c1ccc(CNC(=O)[C@@H]2C[C@@H](O)CN2C(=O)[C@@H](NC(=O)COCCOc2ccc(COc3cc(F)c([C@@H]4c5[nH]c6ccccc6c5C[C@@H](C)N4CC(C)(C)F)c(F)c3)cc2)C(C)(C)C)cc1` [Example 5, (2S,4R)-1-((S)-2-(2-(2-(4-((3,5-Difluoro-4-((1R,3R)-2-(2-fluoro-2-methylpropyl)-3-methyl-2,3,4,9-tetrahydro-1H-pyrido[3,4-b]indol-1-yl)phenoxy)methyl)phenoxy)ethoxy)acetamido)-3,3-dimethylbutanoyl)-4-hydroxy-N-(4-(4-methylthiazol-5-yl)benzyl)pyrrolidine-2-carboxamide] the “ER degradation ≥ 90% at 0.3 μM” value was “•” and the DC50 was 2.6 nM.
For `Cc1ncsc1-c1ccc(CNC(=O)[C@@H]2C[C@@H](O)CN2C(=O)[C@@H](NC(=O)COCCOCCCCCOc2cc(F)c([C@@H]3c4[nH]c5ccccc5c4C[C@@H](C)N3CC(C)(F)F)c(F)c2)C(C)(C)C)cc1` [Example 166, (2S,4R)-1-((S)-2-(2-(2-((5-(4-((1R,3R)-2-(2,2-Difluoropropyl)-3-methyl-2,3,4,9-tetrahydro-1H-pyrido[3,4-b]indol-1-yl)-3,5-difluorophenoxy)pentyl)oxy)ethoxy)acetamido)-3,3-dimethylbutanoyl)-4-hydroxy-N-(4-(4-methylthiazol-5-yl)benzyl)pyrrolidine-2-carboxamide], the “ER degradation ≥ 90% at 0.3 μM” value was “••” and the DC50 was 0.8 nM.
In the case of `Cc1ncsc1-c1ccc(CNC(=O)[C@@H]2C[C@@H](O)CN2C(=O)[C@@H](NC(=O)COCCOCCOCCOCCOCCOCC(=O)Nc2ccc([C@@H]3c4[nH]c5ccccc5c4C[C@@H](C)N3CC(C)(C)F)cc2)C(C)(C)C)cc1` [Example 54, N^1-(4-((1R,3R)-2-(2-fluoro-2-methylpropyl)-3-methyl-2,3,4,9-tetrahydro-1H-pyrido[3,4-b]indol-1-yl)phenyl)-N^18—((S)-1-((2S,4R)-4-hydroxy-2-(4-(4-methylthiazol-5-yl)benzylcarbamoyl)pyrrolidin-1-yl)-3,3-dimethyl-1-oxobutan-2-yl)-2,5,8,11,14,17-hexaoxaoctadecane-1,18-dicarboxamide, Trifluoroacetic Acid], the “ER degradation ≥ 90% at 0.3 μM” value was “••” and the DC50 was 1.7 nM.
For `Cc1ncsc1-c1ccc(CNC(=O)[C@@H]2C[C@@H](O)CN2C(=O)[C@@H](NC(=O)COCCCCCCCOc2ccc([C@@H]3c4[nH]c5ccccc5c4C[C@@H](C)N3CC(F)F)nc2)C(C)(C)C)cc1` [Example 6, (2S,4R)-1-((S)-2-(2-((7-((6-((1S,3R)-2-(2,2-Difluoroethyl)-3-methyl-2,3,4,9-tetrahydro-1H-pyrido[3,4-b]indol-1-yl)pyridin-3-yl)oxy)heptyl)oxy)acetamido)-3,3-dimethylbutanoyl)-4-hydroxy-N-(4-(4-methylthiazol-5-yl)benzyl)pyrrolidine-2-carboxamide], the “ER degradation ≥ 90% at 0.3 μM” value was “••” and the DC50 was 3.6 nM.
For `Cc1ncsc1-c1ccc(CNC(=O)[C@@H]2C[C@@H](O)CN2C(=O)[C@@H](NC(=O)COCCCOCCOc2ccc([C@@H]3c4[nH]c5ccccc5c4C[C@@H](C)N3CC(F)F)nc2)C(C)(C)C)cc1` [Example 26, (2S,4R)-1-((S)-2-(2-(3-(2-((6-((1S,3R)-2-(2,2-Difluoroethyl)-3-methyl-2,3,4,9-tetrahydro-1H-pyrido[3,4-b]indol-1-yl)pyridin-3-yl)oxy)ethoxy)propoxy)acetamido)-3,3-dimethylbutanoyl)-4-hydroxy-N-(4-(4-methylthiazol-5-yl)benzyl)pyrrolidine-2-carboxamide], the “ER degradation ≥ 90% at 0.3 μM” value was “•” and the DC50 was 7.5 nM.
`Cc1ncsc1-c1ccc([C@H](C)NC(=O)[C@@H]2C[C@@H](O)CN2C(=O)[C@@H](NC(=O)COCCc2ccc(COc3cc(F)c([C@@H]4c5[nH]c6ccccc6c5C[C@@H](C)N4CC(C)(C)F)c(F)c3)nc2)C(C)(C)C)cc1` [Example 159, (2S,4R)-1-((S)-2-(2-(2-(6-((3,5-Difluoro-4-((1R,3R)-2-(2-fluoro-2-methylpropyl)-3-methyl-2,3,4,9-tetrahydro-1H-pyrido[3,4-b]indol-1-yl)phenoxy)methyl)pyridin-3-yl)ethoxy)acetamido)-3,3-dimethylbutanoyl)-4-hydroxy-N—((S)-1-(4-(4-methylthiazol-5-yl)phenyl)ethyl)pyrrolidine-2-carboxamide] was tested, and the “ER degradation ≥ 90% at 0.3 μM” value was “••” and the DC50 was 0.5 nM.
With `Cc1ncsc1-c1ccc(CNC(=O)[C@@H]2C[C@@H](O)CN2C(=O)[C@@H](NC(=O)CCCOc2cccc(COc3cc(F)c([C@@H]4c5[nH]c6ccccc6c5C[C@@H](C)N4CC(C)(C)F)c(F)c3)n2)C(C)(C)C)cc1` [Example 162, (2S,4R)-1-((S)-2-(4-((6-((3,5-Difluoro-4-((1R,3R)-2-(2-fluoro-2-methylpropyl)-3-methyl-2,3,4,9-tetrahydro-1H-pyrido[3,4-b]indol-1-yl)phenoxy)methyl)pyridin-2-yl)oxy)butanamido)-3,3-dimethylbutanoyl)-4-hydroxy-N-(4-(4-methylthiazol-5-yl)benzyl)pyrrolidine-2-carboxamide] the “ER degradation ≥ 90% at 0.3 μM” value was “•” and the DC50 was 1.8 nM.
For `Cc1ncsc1-c1ccc(CNC(=O)[C@@H]2C[C@@H](O)CN2C(=O)[C@@H](NC(=O)CCCOCCCCCCOc2cc(F)c([C@@H]3c4[nH]c5ccccc5c4C[C@@H](C)N3CC(C)(C)F)c(F)c2)C(C)(C)C)cc1` [Example 112, (2S,4R)-1-((S)-2-(4-((6-(3,5-difluoro-4-((1R,3R)-2-(2-fluoro-2-methylpropyl)-3-methyl-2,3,4,9-tetrahydro-1H-pyrido[3,4-b]indol-1-yl)phenoxy)hexyl)oxy)butanamido)-3,3-dimethylbutanoyl)-4-hydroxy-N-(4-(4-methylthiazol-5-yl)benzyl)pyrrolidine-2-carboxamide], the “ER degradation ≥ 90% at 0.3 μM” value was “••” and the DC50 was 2.2 nM.
`Cc1ncsc1-c1ccc(CNC(=O)[C@@H]2C[C@@H](O)CN2C(=O)[C@@H](NC(=O)COCCCCOCCOc2cc(F)c([C@@H]3c4[nH]c5ccccc5c4C[C@@H](C)N3CC(C)(C)F)c(F)c2)C(C)(C)C)cc1` [Example 16, (2S,4R)-1-((S)-2-(2-(4-(2-(3,5-Difluoro-4-((1R,3R)-2-(2-fluoro-2-methylpropyl)-3-methyl-2,3,4,9-tetrahydro-1H-pyrido[3,4-b]indol-1-yl)phenoxy)ethoxy)butoxy)acetamido)-3,3-dimethylbutanoyl)-4-hydroxy-N-(4-(4-methylthiazol-5-yl)benzyl)pyrrolidine-2-carboxamide] was tested, and the “ER degradation ≥ 90% at 0.3 μM” value was “••” and the DC50 was 0.8 nM.
`Cc1ncsc1-c1ccc(CNC(=O)[C@@H]2C[C@@H](O)CN2C(=O)[C@@H](NC(=O)COCCCCC(=O)N(C)CCOc2cc(F)c([C@@H]3c4[nH]c5ccccc5c4C[C@@H](C)N3CC(C)(C)F)c(F)c2)C(C)(C)C)cc1` [Example 143, (2S,4R)-1-((S)-2-(2-((5-((2-(3,5-Difluoro-4-((1R,3R)-2-(2-fluoro-2-methylpropyl)-3-methyl-2,3,4,9-tetrahydro-1H-pyrido[3,4-b]indol-1-yl)phenoxy)ethyl)(methyl)amino)-5-oxopentyl)oxy)acetamido)-3,3-dimethylbutanoyl)-4-hydroxy-N-(4-(4-methylthiazol-5-yl)benzyl)pyrrolidine-2-carboxamide] was tested, and the “ER degradation ≥ 90% at 0.3 μM” value was “••” and the DC50 was 0.2 nM.
With `Cc1ncsc1-c1ccc([C@H](C)NC(=O)[C@@H]2C[C@@H](O)CN2C(=O)[C@@H](NC(=O)C(F)(F)OCCOCCCCOc2cc(F)c([C@@H]3c4[nH]c5ccccc5c4C[C@@H](C)N3CC(C)(C)F)c(F)c2)C(C)(C)C)cc1` [Example 122, (2S,4R)-1-((S)-2-(2-(2-(4-(3,5-Difluoro-4-((1R,3R)-2-(2-fluoro-2-methylpropyl)-3-methyl-2,3,4,9-tetrahydro-1H-pyrido[3,4-b]indol-1-yl)phenoxy)butoxy)ethoxy)-2,2-difluoroacetamido)-3,3-dimethylbutanoyl)-4-hydroxy-N—((S)-1-(4-(4-methylthiazol-5-yl)phenyl)ethyl)pyrrolidine-2-carboxamide] the “ER degradation ≥ 90% at 0.3 μM” value was “•” and the DC50 was 2 nM.
